In patent US20250092064A1, “BENZOTRIAZOLE COMPOUND” (DAIICHI SANKYO COMPANY, LIMITED, priority 2022, published 2025):

Legend:
[1] = test system: NQO1 activity in Hepa1c1c7 cells; experiment: NAD(P)H: quinone oxidoreductase-1 (NQO1) enzyme induction assay (in vitro); format: cell-based, mouse; conditions: about 48 hr; for fold induction at 0.4 µM: Mus musculus, Hepa-1c1c7, NQO1 activity with 400 nM test compound as a ratio from the base without compound
Description: The NQO1 assay was performed based on a previous report (Methods in Enzymology 2004; 382: 243-258). Hepa1c1c7 cells (mouse hepatocyte cell line, ATCC, cat. no. CRL-2026) were cultured in D-MEM medium containing 10% FBS and 1% penicillin/streptomycin (5% CO2, 37° C.), and seeded into 96-well plates (Corning REF. 353072) at 1×10^4 cells/well. A portion of the wells were prepared with medium only for background measurement without seeding cells. The next day, 400 nM of the test compound (0.004% of the final concentration in DMSO) dissolved in DMSO was added thereto, and the wells were incubated for about 48 hr. A well without adding the test compound was prepared for base activity assay in part. […] After the medium was removed, 50 μL of the cell lysate was added and incubated at 37° C. for 10 minutes, followed by shaking at room temperature for 10 minutes. 200 μL of reaction solution was added thereto, and allowed to stand for 5 minutes at room temperature. 50 μL of the stop solution was added thereto, and absorbance was measured at 610 nm on a SpectraMax PLUS384 (Molecular devices) or […] Pharma Biomedical). The test results were analyzed in Excel, and the NQO1 activity upon addition of 400 nM of test compound was calculated as a ratio from the base without the compound. NQO1 activity ratio when test compound is added=(absorbance when test compound is added-absorbance of medium only)/(absorbance without addition of compound-absorbance of medium only) [numerical formula 2] The results of each test compound in this test are shown in the following Table 2 (A:5<NQO1 activity ratio, B:3<NQO1 activity ratio≤5).

[2] = molecular target: binding between Nrf2 and Keap1 (Homo sapiens (Human), UniProt Q14145); experiment: FP assay (in vitro): inhibition of Nrf2-Keap1 binding by fluorescence polarization; conditions: GST-fused human Keap1 (325-642) 20 nM, FITC-labeled Nrf2 peptide 10 nM, 2 hr at room temperature
Chain of binding between Nrf2 and Keap1 (Q14145 325-624 limits assumed): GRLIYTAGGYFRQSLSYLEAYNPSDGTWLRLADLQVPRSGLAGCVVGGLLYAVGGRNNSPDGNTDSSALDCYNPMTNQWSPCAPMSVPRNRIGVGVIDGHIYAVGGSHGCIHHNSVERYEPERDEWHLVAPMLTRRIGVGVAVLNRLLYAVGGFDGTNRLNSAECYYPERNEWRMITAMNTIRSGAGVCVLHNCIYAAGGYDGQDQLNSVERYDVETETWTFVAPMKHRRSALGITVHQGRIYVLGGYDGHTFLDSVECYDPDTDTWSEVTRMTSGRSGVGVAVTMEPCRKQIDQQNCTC

Row | Structure (SMILES) | IC50 [2] | activity ratio ([1]; NQO1 activity with 400 nM test compound as a ratio from the base without compound) | fold induction at 0.4 µM [1]
1 | CC[C@@H]1CN(Cc2cc(C(CC(=O)O)c3ccc4c(nnn4C)c3C)cc3ccsc23)S(=O)(=O)c2cc(Cl)cnc2O1 (stereo partly drawn) [Example 1, 3-(7-{[(4R)-8-Chloro-4-ethyl-1,1-dioxido-3,4-dihydro-2H-pyrido[2,3-b][1,4,5]oxathiazepin-2-yl]methyl}-1-benzothiophen-5-yl)-3-(1,4-dimethyl-1H-benzotriazol-5-yl)propanoic acid] | 0.03 to 0.1 µM | – | > 5
2 | CC[C@@H]1CN(Cc2cc(C(CC(=O)O)c3ccc4c(nnn4C)c3Cl)cc3ccsc23)S(=O)(=O)c2cc(Cl)cnc2O1 (stereo partly drawn) [Example 2, 3-(7-{[(4R)-8-Chloro-4-ethyl-1,1-dioxido-3,4-dihydro-2H-pyrido[2,3-b][1,4,5]oxathiazepin-2-yl]methyl}-1-benzothiophen-5-yl)-3-(4-chloro-1-methyl-1H-benzotriazol-5-yl)propanoic acid] | 0.01 to 0.03 µM | – | > 5
3 | CC[C@@H]1CN(Cc2cc(C(CC(=O)O)c3ccc4c(nnn4C)c3C)cc3c2CCC3)S(=O)(=O)c2cc(Cl)cnc2O1 (stereo partly drawn) [Example 3, 3-(7-{[(4R)-8-Chloro-4-ethyl-1,1-dioxido-3,4-dihydro-2H-pyrido[2,3-b][1,4,5]oxathiazepin-2-yl]methyl}-2,3-dihydro-1H-inden-5-yl)-3-(1,4-dimethyl-1H-benzotriazol-5-yl)propanoic acid] | ≤ 0.01 µM | – | > 5
4 | C[C@@H]1CN(Cc2cc(C(CC(=O)O)c3ccc4c(nnn4C)c3F)cc3c2CCC3)S(=O)(=O)c2ccccc2O1 (stereo partly drawn) [Example 6, 3-(4-Fluoro-1-methyl-1H-benzotriazol-5-yl)-3-(7-{[(4R)-4-methyl-1,1-dioxido-3,4-dihydro-2H-5,1,2-benzoxathiazepin-2-yl]methyl}-2,3-dihydro-1H-inden-5-yl)propanoic acid] | ≤ 0.01 µM | – | > 5
5 | CCOc1ccc2c(n1)O[C@H](CC)CN(Cc1cc(C(CC(=O)O)c3ccc4c(nnn4C)c3C)cc3c1CCC3)S2(=O)=O (stereo partly drawn) [Example 9, 3-(1,4-Dimethyl-1H-benzotriazol-5-yl)-3-(7-{[(4R)-7-ethoxy-4-ethyl-1,1-dioxido-3,4-dihydro-2H-pyrido[2,3-b][1,4,5]oxathiazepin-2-yl]methyl}-2,3-dihydro-1H-inden-5-yl)propanoic acid] | 0.01 to 0.03 µM | – | > 5
6 | CC[C@@H]1CN(Cc2cc(C(CC(=O)O)c3ccc4c(nnn4C)c3C)cc3c2CCC3)S(=O)(=O)c2cc(C)cnc2O1 (stereo partly drawn) [Example 10, 3-(1,4-Dimethyl-1H-benzotriazol-5-yl)-3-(7-{[(4R)-4-ethyl-8-methyl-1,1-dioxido-3,4-dihydro-2H-pyrido[2,3-b][1,4,5]oxathiazepin-2-yl]methyl}-2,3-dihydro-1H-inden-5-yl)propanoic acid] | 0.01 to 0.03 µM | – | > 5
7 | CC[C@@H]1CN(Cc2cc(C(CC(=O)O)c3ccc4c(nnn4C)c3C)cc3c2CCC3)S(=O)(=O)c2ccc(C)nc2O1 (stereo partly drawn) [Example 11, 3-(1,4-Dimethyl-1H-benzotriazol-5-yl)-3-(7-{[(4R)-4-ethyl-7-methyl-1,1-dioxido-3,4-dihydro-2H-pyrido[2,3-b][1,4,5]oxathiazepin-2-yl]methyl}-2,3-dihydro-1H-inden-5-yl)propanoic acid] | 0.01 to 0.03 µM | – | > 5
8 | CC[C@@H]1CN(Cc2cc(C(CC(=O)O)c3ccc4c(nnn4C)c3C)cc3c2CCC3)S(=O)(=O)c2ccccc2O1 (stereo partly drawn) [Example 12, 3-(1,4-Dimethyl-1H-benzotriazol-5-yl)-3-(7-{[(4R)-4-ethyl-1,1-dioxido-3,4-dihydro-2H-5,1,2-benzoxathiazepin-2-yl]methyl}-2,3-dihydro-1H-inden-5-yl)propanoic acid] | ≤ 0.01 µM | – | > 5
9 | CC[C@@H]1CN(Cc2cc(C(CC(=O)O)c3ccc4c(nnn4C)c3C)cc3c2CCC3)S(=O)(=O)c2cc(Cl)c(F)cc2O1 (stereo partly drawn) [Example 13, 3-(7-{[(4R)-8-Chloro-4-ethyl-7-fluoro-1,1-dioxido-3,4-dihydro-2H-5,1,2-benzoxathiazepin-2-yl]methyl}-2,3-dihydro-1H-inden-5-yl)-3-(1,4-dimethyl-1H-benzotriazol-5-yl)propanoic acid] | ≤ 0.01 µM | – | > 5
10 | CC[C@@H]1CN(Cc2cc(C(CC(=O)O)c3ccc4c(nnn4C)c3C)cc3c2CCC3)S(=O)(=O)c2cc(Cl)ccc2O1 (stereo partly drawn) [Example 14, 3-(7-{[(4R)-8-Chloro-4-ethyl-1,1-dioxido-3,4-dihydro-2H-5,1,2-benzoxathiazepin-2-yl]methyl}-2,3-dihydro-1H-inden-5-yl)-3-(1,4-dimethyl-1H-benzotriazol-5-yl)propanoic acid] | 0.01 to 0.03 µM | – | > 5
11 | CC[C@@H]1CN(Cc2cc(C(CC(=O)O)c3ccc4c(nnn4C)c3C)cc3c2CCC3)S(=O)(=O)c2cccc(Cl)c2O1 (stereo partly drawn) [Example 16, 3-(7-{[(4R)-6-Chloro-4-ethyl-1,1-dioxido-3,4-dihydro-2H-5,1,2-benzoxathiazepin-2-yl]methyl}-2,3-dihydro-1H-inden-5-yl)-3-(1,4-dimethyl-1H-benzotriazol-5-yl)propanoic acid] | ≤ 0.01 µM | – | > 5

Second part, led by results:

Row | IC50 [2] | Structure (SMILES) | activity ratio ([1]; NQO1 activity with 400 nM test compound as a ratio from the base without compound) | fold induction at 0.4 µM [1]
12 | 0.03 to 0.1 µM | Cc1c([C@H](CC(=O)O)c2cc(CN3C[C@@H](C4CC4)Oc4ccc(O)nc4C3C)c3sccc3c2)cnc2c1nnn2C (single isomer, unassigned) [Example 86, (3R)-3-(7-{[(2R,5S*)-2-Cyclopropyl-7-hydroxy-5-methyl-2,3-dihydropyrido[2,3-f][1,4]oxazepin-4(5H)-yl]methyl}-1-benzothiophen-5-yl)-3-(3,7-dimethyl-3H-[1,2,3]triazolo[4,5-b]pyridin-6-yl)propanoic acid] | A (5<NQO1 activity ratio) | –
13 | 0.01 to 0.03 µM | Cc1c([C@H](CC(=O)O)c2cc(CN3CC4(CC4)Oc4ccc(O)nc4[C@H]3C)c3sccc3c2)ccc2c1nnn2C (single isomer, unassigned) [Example 88, (3R)-3-(1,4-Dimethyl-1H-benzotriazol-5-yl)-3-(7-{[(5′R*)-7′-hydroxy-5′-methyl-3′H-spiro[cyclopropane-1,2′-pyrido[2,3-f][1,4]oxazepin]-4′(5′H)-yl]methyl}-1-benzothiophen-5-yl)propanoic acid] | – | > 5
14 | ≤ 0.01 µM | CC[C@@H]1CN(Cc2cc(C(CC(=O)O)c3cc(O)c4c(nnn4C)c3C)cc3ccsc23)[C@@H](C)c2ncccc2O1 (single isomer, unassigned) [Example 93, (3S*)-3-(7-{[(2R,5S)-2-Ethyl-5-methyl-2,3-dihydropyrido[2,3-f][1,4]oxazepin-4(5H)-yl]methyl}-1-benzothiophen-5-yl)-3-(7-hydroxy-1,4-dimethyl-1H-benzotriazol-5-yl)propanoic acid] | – | > 5
15 | ≤ 0.01 µM | CC[C@@H]1CN(Cc2cc([C@@H](CC(=O)O)c3cc(O)c4c(nnn4C)c3C)cc3ccsc23)[C@@H](C)c2ncccc2O1 (single isomer, unassigned) [Example 94, (3R*)-3-(7-{[(2R,5S)-2-Ethyl-5-methyl-2,3-dihydropyrido[2,3-f][1,4]oxazepin-4(5H)-yl]methyl}-1-benzothiophen-5-yl)-3-(7-hydroxy-1,4-dimethyl-1H-benzotriazol-5-yl)propanoic acid] | – | > 5
16 | ≤ 0.01 µM | CC[C@@H]1CN(Cc2cc(C(CC(=O)O)c3ccc4c(nnn4C)c3C)cc3c2CCC3)S(=O)(=O)c2c(Cl)cccc2O1 (stereo partly drawn) [Example 17, 3-(7-{[(4R)-9-Chloro-4-ethyl-1,1-dioxido-3,4-dihydro-2H-5,1,2-benzoxathiazepin-2-yl]methyl}-2,3-dihydro-1H-inden-5-yl)-3-(1,4-dimethyl-1H-benzotriazol-5-yl)propanoic acid] | – | 3 to 5
17 | 0.03 to 0.1 µM | CCOc1cc2c(cc1Cl)S(=O)(=O)N(Cc1cc(C(CC(=O)O)c3ccc4c(nnn4C)c3C)cc3c1CCC3)C[C@@H](CC)O2 (stereo partly drawn) [Example 18, 3-(7-{[(4R)-8-Chloro-7-ethoxy-4-ethyl-1,1-dioxido-3,4-dihydro-2H-5,1,2-benzoxathiazepin-2-yl]methyl}-2,3-dihydro-1H-inden-5-yl)-3-(1,4-dimethyl-1H-benzotriazol-5-yl)propanoic acid] | – | 3 to 5
18 | 0.01 to 0.03 µM | CCOc1ccc2c(n1)O[C@H](CC)CN(Cc1cc(C(CC(=O)O)c3ccc4c(nnn4C)c3C)cc3ccsc13)S2(=O)=O (stereo partly drawn) [Example 19, 3-(1,4-Dimethyl-1H-benzotriazol-5-yl)-3-(7-{[(4R)-7-ethoxy-4-ethyl-1,1-dioxido-3,4-dihydro-2H-pyrido[2,3-b][1,4,5]oxathiazepin-2-yl]methyl}-1-benzothiophen-5-yl)propanoic acid] | – | > 5
